Experimental data: the supplement of paper PMC8882468

Columns and labels:
Assay in all cases: CTG-3D luminescence at 96 h relative to day-0 seeding control (ratio to day 0); higher = more growth / less cytotoxicity; PDxO 3D drug screen, 96 h, CTG-3D normalised to day-0 seeding control.
HCI-001 = system: HCI-001 (organoid from a triple-negative breast cancer xenograft)
HCI-005.E2 = system: HCI-005.E2 (organoid from a breast cancer xenograft with a HER2-positive history)
HCI-008 = system: HCI-008 (organoid from a HER2-enriched breast cancer xenograft)
HCI-015 = system: HCI-015 (organoid from a triple-negative breast cancer xenograft)
HCI-016 = system: HCI-016 (organoid from a triple-negative breast cancer xenograft)

CCN1CCN(Cc2ccc(Nc3ncc(F)c(-c4cc(F)c5nc(C)n(C(C)C)c5c4)n3)nc2)CC1 [abemaciclib]
CTG-3D luminescence at 96 h
Details | 12.5 pM | 0.00025 µM | 0.005 µM | 0.1 µM | 1 µM | 10 µM | 100 µM | 625 fM
HCI-001, days in culture: 240 | 1.34 | 0.584 | 0.704 | 0.897 | 1.37 | 0.799 | 0.012 | 1.47
HCI-001, days in culture: 260 | 2.51 | 1.22 | 1.6 | 1.75 | 1.37 | 1.23 | 0.00996 | 2.02
HCI-001, days in culture: 269 | 1.53 | 1.73 | 1.69 | 1.38 | 1.17 | 0.68 | 0.0115 | 1.67
HCI-001, days in culture: 327 | 1.46 | 1.41 | 1.87 | 1.58 | 1.36 | 1.12 | 0.0169 | 1.75
HCI-001, days in culture: 346 | 1.39 | 1.37 | 1.18 | 1.14 | 1.17 | 1.35 | 0.0179 | 1.19
HCI-001, days in culture: 364 | 1.39 | 1.1 | 1.38 | 0.914 | 0.909 | 1.22 | 0.0124 | 1.72
HCI-008, days in culture: 228 | 1.42 | 1.63 | 1.38 | 1.89 | 1.86 | 1.53 | 0.0137 | 1.79
HCI-008, days in culture: 244 | 1.57 | 2.05 | 1.87 | 2.13 | 2.12 | 2.51 | 0.0231 | 2.52
HCI-015, days in culture: 172 | 2.01 | 1.6 | 1.87 | 1.21 | 1.52 | 1.06 | 0.0103 | 1.19
HCI-015, days in culture: 191 | 1.17 | 1.4 | 1.23 | 1.15 | 1.45 | 1.09 | 0.0126 | 1.07
HCI-015, days in culture: 218 | 2.17 | 1.65 | 1.7 | 1.63 | 1.48 | 1.23 | 0.0151 | 1.79
HCI-016, days in culture: 153 | 2.82 | 2.09 | 2.87 | 1.71 | 1.14 | 0.355 | 0.0128 | 2.64
HCI-016, days in culture: 172 | 2.12 | 1.72 | 1.43 | 1.67 | 1.25 | 0.322 | 0.0115 | 1.34
HCI-016, days in culture: 190 | 1.98 | 1.4 | 1.32 | 1.35 | 1.26 | 0.196 | 0.00813 | 1.43
HCI-016, days in culture: 199 | 1.89 | 1.75 | 2.03 | 1.74 | 1.21 | 0.0238 | 0.00916 | 1.85

HCI-005.E2
Details | CTG-3D luminescence at 96 h
12.5 pM | 1.99
0.00025 µM | 2.57
0.005 µM | 2.09
0.1 µM | 1.96
1 µM | 1.61
10 µM | 1.43
100 µM | 0.00876
625 fM | 2.12

CC(C)(C(=O)NCC(F)(F)C(F)(F)F)C(=O)N[C@@H]1C(=O)Nc2ccccc2-c2ccccc21
CTG-3D luminescence at 96 h
Details | 12.5 pM | 0.00025 µM | 0.005 µM | 0.1 µM | 1 µM | 10 µM | 100 µM | 625 fM
HCI-001, days in culture: 240 | 1.46 | 1.17 | 0.87 | 0.976 | 1.16 | 0.943 | 1.23 | 1.67
HCI-001, days in culture: 260 | 2.5 | 1.03 | 1.58 | 1.23 | 1.44 | 1.29 | 1.15 | 2.09
HCI-001, days in culture: 269 | 1.46 | 1.61 | 1.38 | 1.81 | 1.67 | 2.38 | 1.78 | 1.58
HCI-001, days in culture: 327 | 1.38 | 1.27 | 1.54 | 1.77 | 1.29 | 1.04 | 1.38 | 1.83
HCI-001, days in culture: 346 | 1.54 | 1.31 | 1.17 | 1.11 | 1.26 | 1.31 | 1.57 | 1.29
HCI-001, days in culture: 364 | 1.49 | 1.25 | 1.38 | 1.09 | 1.14 | 1.29 | 0.937 | 1.4
HCI-008, days in culture: 228 | 1.74 | 1.41 | 1 | 1.3 | 1.17 | 1.68 | 1.05 | 1.81
HCI-008, days in culture: 244 | 1.18 | 1.67 | 1.24 | 1.59 | 1.45 | 1.45 | 0.931 | 2.05
HCI-015, days in culture: 172 | 1.79 | 0.907 | 1.41 | 0.52 | 0.649 | 0.927 | 0.996 | 1.66
HCI-015, days in culture: 191 | 2.23 | 0.752 | 0.752 | 0.54 | 0.523 | 0.502 | 0.509 | 1.89
HCI-015, days in culture: 218 | 1.79 | 1.02 | 1.03 | 0.889 | 0.743 | 0.516 | 0.649 | 1.97
HCI-016, days in culture: 153 | 2.8 | 1.65 | 2.24 | 1.56 | 1.82 | 1.88 | 0.801 | 2.19
HCI-016, days in culture: 172 | 2.46 | 1.82 | 1.92 | 1.28 | 1.18 | 1.37 | 0.772 | 1.91
HCI-016, days in culture: 190 | 1.8 | 1.23 | 1.17 | 1.04 | 1.47 | 1.46 | 0.817 | 1.22
HCI-016, days in culture: 199 | 1.59 | 1.04 | 1.35 | 1.51 | 1.42 | 1.67 | 0.796 | 1.63

HCI-005.E2
Details | CTG-3D luminescence at 96 h
12.5 pM | 1.47
0.00025 µM | 1.48
0.005 µM | 1.45
0.1 µM | 1.8
1 µM | 1.18
10 µM | 1.29
100 µM | 1.03
625 fM | 1.54

C=CC(=O)N1CCC[C@@H](n2nc(-c3ccc(Oc4ccccc4)cc3)c3c(N)ncnc32)C1 [ibrutinib]
CTG-3D luminescence at 96 h
Details | 12.5 pM | 0.00025 µM | 0.005 µM | 0.1 µM | 1 µM | 10 µM | 100 µM | 625 fM
HCI-001, days in culture: 240 | 1.62 | 0.923 | 0.958 | 1.01 | 0.901 | 0.951 | -0.0017 | 1.14
HCI-001, days in culture: 260 | 2.29 | 1.15 | 2.12 | 0.971 | 1.31 | 1.12 | -0.00311 | 1.46
HCI-001, days in culture: 269 | 1.59 | 1.71 | 1.51 | 1.41 | 1.06 | 1.38 | -0.0108 | 1.48
HCI-001, days in culture: 327 | 1.45 | 1.07 | 1.49 | 1.3 | 1.25 | 0.932 | -0.00545 | 1.92
HCI-001, days in culture: 346 | 1.37 | 1.36 | 1.14 | 0.896 | 1.23 | 1.15 | -0.00544 | 1.3
HCI-001, days in culture: 364 | 1.37 | 1.18 | 1.57 | 0.992 | 1.12 | 1.02 | -0.00371 | 1.6
HCI-008, days in culture: 228 | 1.59 | 1.84 | 1.21 | 1.18 | 1.26 | 1 | -0.0059 | 1.66
HCI-008, days in culture: 244 | 1.25 | 1.71 | 1.76 | 1.65 | 1.52 | 1.3 | -0.0038 | 1.98
HCI-015, days in culture: 172 | 2.54 | 1.92 | 2.32 | 1.06 | 1.37 | 1.14 | 7.09e-05 | 2.36
HCI-015, days in culture: 191 | 1.91 | 1.22 | 1.64 | 1.03 | 0.827 | 0.68 | 0.00148 | 1.52
HCI-015, days in culture: 218 | 1.88 | 1.37 | 1.76 | 1.6 | 1.4 | 1.33 | 0.00244 | 1.81
HCI-016, days in culture: 153 | 3.08 | 1.69 | 2.64 | 2.11 | 2.69 | 1.59 | -0.00474 | 2.85
HCI-016, days in culture: 172 | 1.97 | 1.45 | 2 | 1.61 | 1.46 | 1.04 | -0.00481 | 1.49
HCI-016, days in culture: 190 | 1.59 | 1.26 | 1.45 | 1.11 | 0.915 | 0.881 | -0.00814 | 1.37
HCI-016, days in culture: 199 | 1.58 | 1.62 | 1.43 | 1.26 | 1.35 | 1.21 | -0.00558 | 1.72

HCI-005.E2
Details | CTG-3D luminescence at 96 h
12.5 pM | 1.47
0.00025 µM | 2
0.005 µM | 1.22
0.1 µM | 1.93
1 µM | 1.38
10 µM | 0.629
100 µM | -0.00377
625 fM | 1.61
